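Briefly, cells in 96-well plates were exposed to five compound concentrations for 48 h, and endpoints were estimated by linear interpolation. Here, GI50 denotes the concentration required for 50% inhibition of growth. Definition used: TGI = concentration required for complete inhibition of growth.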
Columns and labels:
Experiment in all cases: NCI anticancer screen, dose series, 48 h
SN12C renal = test system: SN12C renal
SK-OV-3 ovarian = test system: SK-OV-3 ovarian
MDA-MB-231 breast = test system: MDA-MB-231 breast
LOX IMVI melanoma = test system: LOX IMVI melanoma
IGROV1 ovarian = test system: IGROV1 ovarian
K-562 leukemia = test system: K-562 leukemia
HL-60(TB) leukemia = test system: HL-60(TB) leukemia
OVCAR-4 ovarian = test system: OVCAR-4 ovarian
DU-145 prostate = test system: DU-145 prostate
NCI-H23 lung = test system: NCI-H23 lung
SK-MEL-2 melanoma = test system: SK-MEL-2 melanoma
SW-620 colon = test system: SW-620 colon
HS 578T breast = test system: HS 578T breast
OVCAR-8 ovarian = test system: OVCAR-8 ovarian
HOP-92 NSCLC = test system: HOP-92 NSCLC
A549 NSCLC = test system: A549 NSCLC
SR leukemia = test system: SR leukemia
M14 melanoma = test system: M14 melanoma
TK-10 renal = test system: TK-10 renal
OVCAR-3 ovarian = test system: OVCAR-3 ovarian
UACC-257 melanoma = test system: UACC-257 melanoma
T-47D breast = test system: T-47D breast
MCF7 breast = test system: MCF7 breast
MDA-MB-435 = test system: MDA-MB-435
RPMI-8226 leukemia = test system: RPMI-8226 leukemia
HCC-2998 colon = test system: HCC-2998 colon
SNB-19 CNS = test system: SNB-19 CNS
RXF 393 renal = test system: RXF 393 renal
UO-31 renal = test system: UO-31 renal
HCT-15 colon = test system: HCT-15 colon
SK-MEL-5 melanoma = test system: SK-MEL-5 melanoma
A498 renal = test system: A498 renal
NCI-H460 lung = test system: NCI-H460 lung
SK-MEL-28 melanoma = test system: SK-MEL-28 melanoma
786-0 renal = test system: 786-0 renal
NCI/ADR-RES ovarian = test system: NCI/ADR-RES ovarian
EKVX NSCLC = test system: EKVX NSCLC
HCT-116 colon = test system: HCT-116 colon
SF-539 CNS = test system: SF-539 CNS
CCRF-CEM leukemia = test system: CCRF-CEM leukemia
OVCAR-5 ovarian = test system: OVCAR-5 ovarian
MOLT-4 leukemia = test system: MOLT-4 leukemia
UACC-62 melanoma = test system: UACC-62 melanoma
PC-3 prostate = test system: PC-3 prostate
KM12 colon = test system: KM12 colon
BT-549 breast = test system: BT-549 breast
SF-295 CNS = test system: SF-295 CNS
U251 CNS = test system: U251 CNS
MALME-3M melanoma = test system: MALME-3M melanoma
HT29 colon = test system: HT29 colon
SNB-75 CNS = test system: SNB-75 CNS
NCI-H226 lung = test system: NCI-H226 lung
HOP-62 NSCLC = test system: HOP-62 NSCLC
SF-268 CNS = test system: SF-268 CNS
NCI-H522 lung = test system: NCI-H522 lung

## C[C@@]1(c2ncncc2F)NC(=O)c2cc(-c3cn[nH]c3)ccc21
SN12C renal
  GI50: 26.5 µM
  TGI: > 100 µM
SK-OV-3 ovarian
  GI50: 18.5 µM
  TGI: 76 µM
MDA-MB-231 breast
  GI50: 27.6 µM
  TGI: 89.5 µM
LOX IMVI melanoma
  GI50: 8.23 µM
  TGI: > 100 µM
IGROV1 ovarian
  GI50: 21.4 µM
  TGI: > 100 µM
K-562 leukemia
  GI50: 46.8 µM
  TGI: > 100 µM
HL-60(TB) leukemia
  GI50: 15.8 µM
  TGI: 60.4 µM
OVCAR-4 ovarian
  GI50: 38.5 µM
  TGI: > 100 µM
DU-145 prostate
  GI50: 28.8 µM
  TGI: > 100 µM
NCI-H23 lung
  GI50: 18.7 µM
  TGI: > 100 µM
SK-MEL-2 melanoma
  GI50: 23.8 µM
  TGI: 68.2 µM
SW-620 colon
  GI50: 6.79 µM
  TGI: > 100 µM
HS 578T breast
  GI50: 23 µM
  TGI: > 100 µM
OVCAR-8 ovarian
  GI50: 26.9 µM
  TGI: > 100 µM
HOP-92 NSCLC
  GI50: 22.6 µM
  TGI: 88.5 µM
A549 NSCLC
  GI50: 28.2 µM
  TGI: > 100 µM
SR leukemia
  GI50: 15.6 µM
  TGI: > 100 µM
M14 melanoma
  GI50: 15.2 µM
  TGI: 77.7 µM
TK-10 renal
  GI50: 10.9 µM
  TGI: 58.3 µM
OVCAR-3 ovarian
  GI50: 21.9 µM
  TGI: > 100 µM
UACC-257 melanoma
  GI50: 30.3 µM
  TGI: 98.7 µM
T-47D breast
  GI50: 27.9 µM
  TGI: > 100 µM
MCF7 breast
  GI50: 21 µM
  TGI: > 100 µM
MDA-MB-435
  GI50: 19.9 µM
  TGI: > 100 µM
RPMI-8226 leukemia
  GI50: 31 µM
  TGI: 95.2 µM
HCC-2998 colon
  GI50: 22.9 µM
  TGI: > 100 µM
SNB-19 CNS
  GI50: 31.9 µM
  TGI: > 100 µM
RXF 393 renal
  GI50: 15.2 µM
  TGI: 37.3 µM
UO-31 renal
  GI50: 17.2 µM
  TGI: 72.8 µM
HCT-15 colon
  GI50: 20.8 µM
  TGI: > 100 µM
SK-MEL-5 melanoma
  GI50: 20 µM
  TGI: > 100 µM
A498 renal
  GI50: 14.4 µM
  TGI: 50.5 µM
NCI-H460 lung
  GI50: 25 µM
  TGI: > 100 µM
SK-MEL-28 melanoma
  GI50: 11.7 µM
  TGI: 73.4 µM
786-0 renal
  GI50: 23.6 µM
  TGI: 91.1 µM
NCI/ADR-RES ovarian
  GI50: 37.9 µM
  TGI: > 100 µM
EKVX NSCLC
  GI50: 22.1 µM
  TGI: > 100 µM
HCT-116 colon
  GI50: 5.48 µM
  TGI: > 100 µM
SF-539 CNS
  GI50: 5.61 µM
  TGI: 32.7 µM
CCRF-CEM leukemia
  GI50: 42.3 µM
  TGI: > 100 µM
OVCAR-5 ovarian
  GI50: 22.4 µM
  TGI: 99 µM
MOLT-4 leukemia
  GI50: 26.5 µM
  TGI: > 100 µM
UACC-62 melanoma
  GI50: 18.8 µM
  TGI: 70.6 µM
PC-3 prostate
  GI50: 27.2 µM
  TGI: > 100 µM
KM12 colon
  GI50: 29.6 µM
  TGI: > 100 µM
BT-549 breast
  GI50: 11.8 µM
  TGI: 49.3 µM
SF-295 CNS
  GI50: 29.4 µM
  TGI: > 100 µM
U251 CNS
  GI50: 29.4 µM
  TGI: > 100 µM
MALME-3M melanoma
  GI50: 12.9 µM
  TGI: 68.4 µM
HT29 colon
  GI50: 7.46 µM
  TGI: 90.9 µM
SNB-75 CNS
  GI50: 4.45 µM
  TGI: 40.3 µM
NCI-H226 lung
  GI50: 20.1 µM
  TGI: > 100 µM
HOP-62 NSCLC
  GI50: 18.7 µM
  TGI: > 100 µM
SF-268 CNS
  GI50: 28.4 µM
  TGI: > 100 µM
NCI-H522 lung
  GI50: 13.1 µM
  TGI: > 100 µM
